Results as given in patent US7704699B2, “Method for the characterization of the three-dimensional structure of proteins employing mass spectrometric analysis and computational feedback modeling” (H-NU OPS, Inc., priority 1993, dated 2010).

System: cytochrome c; horse tuna and yeast
Assay: ES-MS study of non-covalent interactions of crown ethers with three types of cytochrome c (rank order)
Type: binding
Conditions: rank among the three crown ethers, all three cytochrome c types
Procedure: […]; horse tuna and yeast, utilizing the ES probe 50 and method of this invention.
More particularly, the experiments showing binding of crowns to cytochrome c were done by adding 1, 2, and 3 mol ratios to a 70 pmol/μL mixture of the three different cytochrome c's. The solutions were prepared with equal parts of methanol/water with 1% acetic acid. Typical sample conditions were, 95° C., 2 μL/min, 4000 VDC on the syringe, 170 VDC on the capillary tube, and 60 VDC on the skimmer.

Row | relative tightness of binding to cytochrome c | Structure (SMILES)
1 | binding the least tightly | c1ccc2c(c1)OCCOCCOc1ccccc1OCCOCCO2 [Dibenzo-18-Crown-6, dibenzo-18-crown-6]
2 | binding the most tightly | C1CCC2OCCOCCOC3CCCCC3OCCOCCOC2C1 (centres unmarked) [Dicyclohexano-18-Crown-6, dicyclohexano-18-crown-6]
